Columns and labels:
[1] = target: T1, cathepsin K activated from recombinant human procathepsin K (Homo sapiens, UniProt P43235); assay: Cathepsin K enzyme inhibition in vitro (kinetic fluorescence assay); assay type: biochemical; details: Ki(cathepsin K)/Ki(calpain) ratio
T1 construct: purchased Calbiochem 342001; host or cells: E. coli
T1 sequence (P43235 115-329): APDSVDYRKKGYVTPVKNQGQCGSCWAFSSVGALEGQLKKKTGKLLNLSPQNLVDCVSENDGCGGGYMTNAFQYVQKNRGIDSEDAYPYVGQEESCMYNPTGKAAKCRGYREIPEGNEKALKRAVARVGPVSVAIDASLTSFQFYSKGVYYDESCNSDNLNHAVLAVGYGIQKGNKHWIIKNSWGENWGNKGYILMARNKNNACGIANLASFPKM
Procedure, shortened: (§1)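 Kinetic AMC fluorescence (ex 390/em 460 nm), room temperature. Calpain-I 20 nM, 100 μM Suc-Leu-Tyr-AMC, imidazole/CaCl2 pH 7.3; cathepsins B 0.25 nM/100 μM Z-Phe-Arg-AMC, K 3 nM/10 μM Z-Gly-Pro-Arg-AMC, S 0.5 nM/20 μM Z-Val-Val-Arg-AMC, each MES/EDTA/cysteine pH 6.0. Ki from IC50 via Cheng-Prusoff, averaging 2–4 curves.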

[2] = target: T2, cathepsin L isolated from human liver (Homo sapiens, UniProt P07711); assay: Cathepsin L enzyme inhibition in vitro (kinetic fluorescence assay); assay type: biochemical; details: Ki(cathepsin L)/Ki(calpain) ratio
T2 construct: cathepsin L—isolated from human liver; purchased Calbiochem 219402; host or cells: human liver (tissue-derived)
Procedure, shortened: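 Inhibition of cathepsin L isolated from human liver was measured by kinetic fluorescence (excitation 390 nm, emission 460 nm) using 1 nM enzyme and 2 μM Z-Phe-Arg-AMC substrate (Km 2 μM) in 50 mM MES, 2 mM EDTA, 0.05% Brij 35, 2.5 mM L-cysteine, pH 6.0, at room temperature. Apparent Ki values came from IC50 values via the Cheng-Prussoff relation, averaged over 2 to 4 dose-effect plots.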

[3] = Assay for determining cytosolic clearance, cynomolgus monkey liver cytosol; assay type: in vitro ADME; details: 0.5 μM compound, 1 mg/ml cynomolgus monkey liver cytosol, 37° C., pH 7.5
Procedure: (§2) For comparison purposes data measured with human liver cytosol were contrasted with those obtained with cynomolgus monkey liver cytosol.
(§3) 0.5 μM of a compound to be tested was incubated with 1 mg/ml of human liver cytosol as well as monkey liver cytosol at 37° C. in 0.5 M of phosphate buffer at pH 7.5 while shaking (commercial sources: female cynomolgus liver cytosol from Tebu bio, human liver cytosol from BDgentest).
(§4) In each case aliquots of 65 μl were taken after 0, 5, 10 and 15 min and transferred into wells of a wellplate which were immediately filled with 130 μl of ethanol to stop the reaction. The samples were kept frozen until analysis on a LC/MS/MS system (Applied Biosystems SCIEX 4000).
(§5) Read out parameters were the loss of parent compounds, from which the half life periods (T1/2) were calculated from.
(§6) To assess the stability of the compounds tested the clearance ranges were adjusted to the hepatic plasma flow of the different species according to the following scheme:
(§7) stable=from 0 to about ⅓ of the hepatic plasma flow;
(§8) moderately stable=from about ⅓ to about ⅔ of the hepatic plasma flow;
(§9) instable=more than ⅔ of the hepatic plasma flow.
(§10) Based on this adjustment the following qualifiers were assigned to evaluate the cytosolic stabilities of the compounds tested: […]

[4] = target: T3, recombinant human cathepsin S (Homo sapiens, UniProt P25774); assay: Cathepsin S enzyme inhibition in vitro (kinetic fluorescence assay); assay type: biochemical; details: Ki(cathepsin S)/Ki(calpain) ratio
T3 construct: purchased Calbiochem 219343; host or cells: E. coli
Procedure, shortened: as §1

[5] = Assay for determining cytosolic clearance, human liver cytosol; assay type: in vitro ADME; details: 0.5 μM compound, 1 mg/ml human liver cytosol, 37° C., pH 7.5
Procedure: as §2, §3, §4, §5, §6, §7, §8, §9, §10

[6] = target: T4, cathepsin B isolated from human liver (Homo sapiens, UniProt P07858); assay: Cathepsin B enzyme inhibition in vitro (kinetic fluorescence assay); assay type: biochemical; details: Ki(cathepsin B)/Ki(calpain) ratio
T4 construct: cathepsin B—isolated from human liver; purchased Calbiochem 219362; host or cells: human liver (tissue-derived)
Procedure, shortened: as §1

[7] = target: T5, calpain-I isolated from human erythrocytes (Homo sapiens, UniProt P07384); assay: Calpain I enzyme inhibition in vitro (kinetic fluorescence assay); assay type: biochemical; details: apparent Ki from IC50 (Cheng-Prussoff); 20 nM calpain-I, 100 μM Suc-Leu-Tyr-AMC, pH 7.3, room temperature
T5 construct: calpain-I—isolated from human erythrocytes; purchased Calbiochem 208713; host or cells: human erythrocytes (tissue-derived)
T5 sequence (P07384 1-714): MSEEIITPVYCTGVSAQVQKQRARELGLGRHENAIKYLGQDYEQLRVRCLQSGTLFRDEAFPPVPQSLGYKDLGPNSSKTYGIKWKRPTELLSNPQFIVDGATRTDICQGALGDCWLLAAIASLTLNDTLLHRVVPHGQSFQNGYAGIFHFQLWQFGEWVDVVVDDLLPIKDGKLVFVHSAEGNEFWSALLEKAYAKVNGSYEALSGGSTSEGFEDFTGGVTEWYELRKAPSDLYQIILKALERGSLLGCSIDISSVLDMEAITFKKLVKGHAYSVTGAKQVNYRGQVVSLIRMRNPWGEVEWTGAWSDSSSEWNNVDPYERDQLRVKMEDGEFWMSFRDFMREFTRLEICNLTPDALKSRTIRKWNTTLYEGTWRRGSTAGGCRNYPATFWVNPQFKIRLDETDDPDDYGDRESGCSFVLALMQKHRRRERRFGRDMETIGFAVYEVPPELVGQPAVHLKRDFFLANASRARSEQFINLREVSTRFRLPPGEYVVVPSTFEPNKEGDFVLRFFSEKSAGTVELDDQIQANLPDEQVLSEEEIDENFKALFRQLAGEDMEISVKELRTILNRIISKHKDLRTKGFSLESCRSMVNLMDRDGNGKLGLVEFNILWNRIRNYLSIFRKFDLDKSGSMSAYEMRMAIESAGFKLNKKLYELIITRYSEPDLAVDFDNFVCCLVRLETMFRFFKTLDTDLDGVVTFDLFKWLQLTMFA
T5 sequence (P04632 1-268 partner): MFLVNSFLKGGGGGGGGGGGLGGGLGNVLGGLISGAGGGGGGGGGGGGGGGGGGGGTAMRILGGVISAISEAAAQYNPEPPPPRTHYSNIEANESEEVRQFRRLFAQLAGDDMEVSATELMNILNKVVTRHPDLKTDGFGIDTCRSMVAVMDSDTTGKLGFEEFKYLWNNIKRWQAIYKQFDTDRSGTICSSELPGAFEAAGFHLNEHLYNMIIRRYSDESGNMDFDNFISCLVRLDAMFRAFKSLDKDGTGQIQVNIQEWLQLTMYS
Procedure, shortened: as §1

T2 sequence (P07711 114-333): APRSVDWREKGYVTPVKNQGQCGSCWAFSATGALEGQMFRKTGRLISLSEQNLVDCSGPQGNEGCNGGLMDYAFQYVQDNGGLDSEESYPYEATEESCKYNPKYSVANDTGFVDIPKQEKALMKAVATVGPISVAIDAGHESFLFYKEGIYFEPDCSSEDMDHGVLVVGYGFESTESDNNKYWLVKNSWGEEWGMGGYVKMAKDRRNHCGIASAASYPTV
T3 sequence (P25774 115-331): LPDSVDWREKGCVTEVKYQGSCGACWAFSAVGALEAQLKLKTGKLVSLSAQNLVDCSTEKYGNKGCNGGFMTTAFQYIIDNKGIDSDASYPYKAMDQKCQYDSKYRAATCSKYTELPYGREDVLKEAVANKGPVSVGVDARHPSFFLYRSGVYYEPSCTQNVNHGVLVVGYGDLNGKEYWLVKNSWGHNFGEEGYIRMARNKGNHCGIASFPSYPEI

SMILES: CCNC(=O)C(=O)C(Cc1ccccc1)NC(=O)[C@H]1CCC(=O)N1Cc1ccccc1C(F)(F)F (mixture of isomers) [Example 37, (2R)—N-(4-(Ethylamino)-3,4-dioxo-1-phenylbutan-2-yl)-5-oxo-1-(2-(trifluoromethyl)-benzyl)pyrrolidine-2-carboxamide]
- Sel cat. K [1]: ++ (10<Ki(cathepsin B)/Ki(calpain)≦30)
- Sel cat. L [2]: +++ (Ki(cathepsin L)/Ki(calpain) ratio of >30)
- cyno cytCL [3]: ++ (0-18 μl/min/mg)
- Sel cat. S [4]: + (10<Ki(cathepsin S)/Ki(calpain)≦30)
- human cytCL [5]: ++ (0-14 μl/min/mg)
- Sel cat. B [6]: ++ (10<Ki(cathepsin B)/Ki(calpain)≦30)
- Ki [7]: 100 to 600 nM

SMILES: O=C(NCc1ccc(C(F)(F)F)cc1)C(=O)C(Cc1ccccc1)NC(=O)[C@H]1CCC(=O)N1Cc1ccccc1 (mixture of isomers) [Example 68, (2R)-1-Benzyl-N-(3,4-dioxo-1-phenyl-4-(4-(trifluoromethyl)benzylamino)butan-2-yl)-5-oxopyrrolidine-2-carboxamide]
- Sel cat. K [1]: +++ (Ki(cathepsin K)/Ki(calpain) ratio of >30)
- Sel cat. L [2]: ++ (10<Ki(cathepsin B)/Ki(calpain)≦30)
- cyno cytCL [3]: ++ (0-18 μl/min/mg)
- Sel cat. S [4]: +++ (Ki(cathepsin S)/Ki(calpain) ratio of >100)
- Sel cat. B [6]: +++ (Ki(cathepsin B)/Ki(calpain) ratio of >30)
- Ki [7]: 100 to 600 nM

SMILES: O=C(NC1CC1)C(=O)C(Cc1ccccc1)NC(=O)[C@H]1CCC(=O)N1Cc1ccccc1 (mixture of isomers) [Example 27, (2R)-1-Benzyl-N-(4-(cyclopropylamino)-3,4-dioxo-1-phenylbutan-2-yl)-5-oxopyrrolidine-2-carboxamide]
- Sel cat. K [1]: +++ (Ki(cathepsin K)/Ki(calpain) ratio of >30)
- Sel cat. L [2]: +++ (Ki(cathepsin L)/Ki(calpain) ratio of >30)
- cyno cytCL [3]: ++ (0-18 μl/min/mg)
- Sel cat. S [4]: ++ (30<Ki(cathepsin B)/Ki(calpain)≦100)
- human cytCL [5]: ++ (0-14 μl/min/mg)
- Sel cat. B [6]: +++ (Ki(cathepsin B)/Ki(calpain) ratio of >30)
- Ki [7]: 100 to 600 nM

SMILES: CCNC(=O)C(=O)C(Cc1ccccc1)NC(=O)[C@H]1CCC(=O)N1Cc1c(OC)cccc1C(F)(F)F (mixture of isomers) [Example 42, (2R)—N-(4-(Ethylamino)-3,4-dioxo-1-phenylbutan-2-yl)-1-(2-methoxy-6-(trifluoromethyl)benzyl)-5-oxopyrrolidine-2-carboxamide]
- Sel cat. K [1]: ++ (10<Ki(cathepsin B)/Ki(calpain)≦30)
- Sel cat. L [2]: ++ (10<Ki(cathepsin B)/Ki(calpain)≦30)
- cyno cytCL [3]: ++ (0-18 μl/min/mg)
- human cytCL [5]: ++ (0-14 μl/min/mg)
- Sel cat. B [6]: ++ (10<Ki(cathepsin B)/Ki(calpain)≦30)

SMILES: O=C(NCc1ccc2c(c1)OCO2)C(=O)C(Cc1ccccc1)NC(=O)[C@H]1CCC(=O)N1Cc1ccccc1 (mixture of isomers) [Example 66, (2R)—N-(4-(Benzo[d][1,3]-dioxol-5-ylmethylamino)-3,4-dioxo-1-phenylbutan-2-yl)-1-benzyl-5-oxopyrrolidine-2-carboxamide]
- Sel cat. K [1]: ++ (10<Ki(cathepsin B)/Ki(calpain)≦30)
- Sel cat. L [2]: ++ (10<Ki(cathepsin B)/Ki(calpain)≦30)
- Sel cat. S [4]: +++ (Ki(cathepsin S)/Ki(calpain) ratio of >100)
- Sel cat. B [6]: +++ (Ki(cathepsin B)/Ki(calpain) ratio of >30)
- Ki [7]: 50 to 100 nM

SMILES: NC(=O)C(=O)C(Cc1ccccc1)NC(=O)[C@H]1CCC(=O)N1Cc1c(F)cccc1F (stereo partly drawn) [Example 51, (2R)—N-(4-Amino-3,4-dioxo-1-phenylbutan-2-yl)-5-oxo-1-(2,6-difluorobenzyl)-pyrrolidine-2-carboxamide]
- Sel cat. K [1]: +++ (Ki(cathepsin K)/Ki(calpain) ratio of >30)
- Sel cat. L [2]: ++ (10<Ki(cathepsin B)/Ki(calpain)≦30)
- Sel cat. S [4]: +++ (Ki(cathepsin S)/Ki(calpain) ratio of >100)
- Sel cat. B [6]: ++ (10<Ki(cathepsin B)/Ki(calpain)≦30)
- Ki [7]: 50 to 100 nM

SMILES: NC(=O)C(=O)C(Cc1ccccc1)NC(=O)[C@H]1CCC(=O)N1Cc1cccc(Cl)c1 (stereo partly drawn) [Example 3, (2R)—N-(4-Amino-3,4-dioxo-1-phenylbutan-2-yl)-1-(3-chlorobenzyl)-5-oxopyrrolidine-2-carboxamide]
- Sel cat. K [1]: +++ (Ki(cathepsin K)/Ki(calpain) ratio of >30)
- Sel cat. L [2]: ++ (10<Ki(cathepsin B)/Ki(calpain)≦30)
- Sel cat. S [4]: +++ (Ki(cathepsin S)/Ki(calpain) ratio of >100)
- Sel cat. B [6]: ++ (10<Ki(cathepsin B)/Ki(calpain)≦30)
- Ki [7]: < 50 nM

SMILES: O=C(NC1CC1)C(=O)C(Cc1ccccc1)NC(=O)[C@H]1CCC(=O)N1Cc1ccccc1Cl (mixture of isomers) [Example 46, (2R)-1-(2-Chlorobenzyl)-N-(4-(cyclopropylamino)-3,4-dioxo-1-phenylbutan-2-yl)-5-oxopyrrolidine-2-carboxamide]
- Sel cat. K [1]: +++ (Ki(cathepsin K)/Ki(calpain) ratio of >30)
- Sel cat. L [2]: +++ (Ki(cathepsin L)/Ki(calpain) ratio of >30)
- Sel cat. S [4]: +++ (Ki(cathepsin S)/Ki(calpain) ratio of >100)
- Sel cat. B [6]: ++ (10<Ki(cathepsin B)/Ki(calpain)≦30)
- Ki [7]: 50 to 100 nM

Source: patent publication US9018206B2, “Carboxamide compounds and their use as calpain inhibitors” (AbbVie Deutschland GmbH & Co. KG, priority 2009, dated 2015)
